Assay results published in US20030109920A1, “Engineered animal tissue” (The Regents of the University of California, priority 2001, published 2003).

Tests used:
Format in all cases: cell-based, human
[1] = tested on: MMP-9; test: Gelatin zymogram assay of MMP-9 in IL-8 treated artificial tissue; details: Cell/ECM extracts and culture medium (supernatants); samples collected 24 hours after IL-8 treatment (FIG. 4)
Method: (§1) Cell cultures: Three dimensional artificial tissues were created as described above in Example 1 using primary normal human microvascular endothelial cells from adult lung (hMVEC; Clonetics), and primary adult normal human dermal fibroblasts (NHDF; Clonetics). The cultures were set up in either 24-well plates or Transwell units (Becton Dickinson) with polyethylene tetraphthalate filters containing 4 μm pores. Cultures were maintained at 37° C. and of 5% CO2 for at least 2 weeks. Medium was changed 24 hours after the cultures were started and then fed every 48 hours.
Zymography: Zymography was performed using 10% denaturing polyacrylamide gels as previously described (Paech and Christiansen. (1994) In Cell biology: a laboratory handbook. (J. Celis, Ed.) V.3 pp.264-271 San Diego: Academic Press). Briefly, gels to test for gelatinolytic activity contained 1% gelatin (Sigma) and were cast 12 hours before the sample separation. Protein samples were separated at 4° C. with 10 mA constant current for each gel. The proteins were renatured using two washes of 15 minutes each in 2.5% Triton-X100 twice at RT. […]

[2] = tested on: VE-cadherin; test: IL-8 treatment of artificial tissue, phosphorylation of VE-Cadherin by immunoblot; details: artificial tissue treated with IL-8 at 50, 100, 300, 600, 1000 ng/ml for 30 minutes; immunoblot (FIG. 3)
Method: as §1
(§2) Immunoblotting: SDS-PAGE was performed using 10% separating Doucet gels (Doucet, J., and J. Trifaro. A discontinous and highly porous sodium dodecyl sulfatepolyacrylamide slab gel system of high resolution. Anal. Biochem. (1988) 168:265-271.). Protein transfer to nitrocellulose membranes was performed using a wet-transfer apparatus (BioRad) at 100V for 45 min at room temperature. The membranes were blocked for 1 hour in 5% BSA in TTBS (0.05% Tween in Tris buffered saline) and incubated overnight at 4° C. in primary antibody diluted in 1% BSA in TTBS. The membranes were washed 3 times for 20 min each with TTBS, incubated in anti-mouse or anti-rabbit HRP (1:10,000) in 1% BSA for 1 hr, and washed 3 times for 20 minutes each with TTBS. The antibody bound to the membrane was visualized using ECL chemiluminescent kit (Amersham). […]

[3] = tested on: PECAM-1; test: IL-8 treatment of artificial tissue, phosphorylation of PECAM-1 by immunoblot; details: artificial tissue treated with IL-8 at 50, 100, 300, 600, 1000 ng/ml for 30 minutes; immunoblot (FIG. 3)
Method: as §1, §2

“IL-8: human chemokine IL-8, used as test compound on the artificial tissue” was tested, and the MMP-9 activation [1] was “increases MMP-9 production and activation in a dose-dependent manner”, the MMP-9 production [1] was “increases MMP-9 production and activation in a dose-dependent manner” and the “phosphorylation of VE-cadherin in microvessels” value [2] was “stimulates the phosphorylation”. The “phosphorylation of PECAM in microvessels” value [3] was “stimulates the phosphorylation”.
